According to the NIST ThermoML archive (doi:10.1016/j.fluid.2014.11.020):
± gives the expanded uncertainty stated by the source.

Experiment: activity coefficient (dimensionless); of the first substance listed, at infinite dilution; xn = mol fraction of the nth substance listed
Conditions: Liquid, Chromatography, x1 = 0

Compound | activity coefficient (323.15 K) | activity coefficient (333.15 K) | activity coefficient (343.15 K)
CC(C)CO [2-methyl-1-propanol] + CCCCCCCCn1cc[n+](COCCCOC[n+]2ccn(CCCCCCCC)c2C)c1C.O=S(=O)([N-]S(=O)(=O)C(F)(F)F)C(F)(F)F.O=S(=O)([N-]S(=O)(=O)C(F)(F)F)C(F)(F)F | 0.8 ± 0.05 | 0.72 ± 0.05 | 0.67 ± 0.05
CCCCCCC [heptane] + CCCOC[n+]1ccc(N(C)C)cc1.O=S(=O)([N-]S(=O)(=O)C(F)(F)F)C(F)(F)F | 15.8 ± 1.1 | 14.8 ± 1 | 13.9 ± 0.95
c1ccsc1 [thiophene] + CCCOC[n+]1ccn(C)c1.N#C[N-]C#N | 1.41 ± 0.09 | 1.45 ± 0.1 | 1.5 ± 0.1
c1ccncc1 [pyridine] + CCCOC[n+]1ccc(N(C)C)cc1.O=S(=O)([N-]S(=O)(=O)C(F)(F)F)C(F)(F)F | 0.43 ± 0.04 | 0.45 ± 0.04 | 0.46 ± 0.04
CCC(C)=O [butanone] + CCCOC[n+]1ccn(Cc2ccccc2)c1.N#C[N-]C#N | 0.9 ± 0.06 | 0.87 ± 0.06 | 0.81 ± 0.05
ClC(Cl)Cl [trichloromethane] + Cn1cc[n+](COCCCOC[n+]2ccn(C)c2)c1.O=S(=O)([N-]S(=O)(=O)C(F)(F)F)C(F)(F)F.O=S(=O)([N-]S(=O)(=O)C(F)(F)F)C(F)(F)F | 0.87 ± 0.06 | 0.89 ± 0.06 | 0.71 ± 0.05
c1ccsc1 [thiophene] + Cn1cc[n+](COCCCOC[n+]2ccn(C)c2)c1.O=S(=O)([N-]S(=O)(=O)C(F)(F)F)C(F)(F)F.O=S(=O)([N-]S(=O)(=O)C(F)(F)F)C(F)(F)F | 0.77 ± 0.05 | 0.78 ± 0.05 | 0.78 ± 0.05
c1ccsc1 [thiophene] + CCCOC[n+]1ccn(Cc2ccccc2)c1.N#C[N-]C#N | 0.98 ± 0.06 | 1.02 ± 0.06 | 1.04 ± 0.07
CCCC(C)=O [pentan-2-one] + Cn1cc[n+](COCCCOC[n+]2ccn(C)c2)c1.N#C[N-]C#N.N#C[N-]C#N | 3.5 ± 0.24 | 3.5 ± 0.24 | 3.49 ± 0.24
CCCC(C)=O [pentan-2-one] + CCCOC[n+]1ccn(Cc2ccccc2)c1.N#C[N-]C#N | 1.45 ± 0.1 | 1.51 ± 0.1 | 1.51 ± 0.1
CC(C)CO [2-methyl-1-propanol] + CCCCCCCCn1cc[n+](COCCCOC[n+]2ccn(CCCCCCCC)c2C)c1C.N#C[N-]C#N.N#C[N-]C#N | 0.36 ± 0.03 | 0.36 ± 0.03 | 0.35 ± 0.03
CC(C)O [propan-2-ol] + CCCCCCCCn1cc[n+](COCCCOC[n+]2ccn(CCCCCCCC)c2C)c1C.O=S(=O)([N-]S(=O)(=O)C(F)(F)F)C(F)(F)F.O=S(=O)([N-]S(=O)(=O)C(F)(F)F)C(F)(F)F | 0.68 ± 0.05 | 0.61 ± 0.04 | 0.56 ± 0.04
CCCO [propan-1-ol] + Cn1cc[n+](COCCCOC[n+]2ccn(C)c2)c1.O=S(=O)([N-]S(=O)(=O)C(F)(F)F)C(F)(F)F.O=S(=O)([N-]S(=O)(=O)C(F)(F)F)C(F)(F)F | 1.43 ± 0.09 | 1.32 ± 0.09 | 1.19 ± 0.08
C#CCCCCC [1-heptyne] + Cn1cc[n+](COCCCOC[n+]2ccn(C)c2)c1.O=S(=O)([N-]S(=O)(=O)C(F)(F)F)C(F)(F)F.O=S(=O)([N-]S(=O)(=O)C(F)(F)F)C(F)(F)F | 5.9 ± 0.4 | 6.09 ± 0.42 | 5.71 ± 0.39
Cc1cccc(C)c1 [1,3-dimethylbenzene] + CCCOC[n+]1ccn(Cc2ccccc2)c1.N#C[N-]C#N | 3.62 ± 0.25 | 3.52 ± 0.24 | 3.42 ± 0.23
CC#N [acetonitrile] + CCCOC[n+]1ccc(N(C)C)cc1.O=S(=O)([N-]S(=O)(=O)C(F)(F)F)C(F)(F)F | 0.51 ± 0.04 | 0.52 ± 0.04 | 0.52 ± 0.04
CC#N [acetonitrile] + CCCOC[n+]1ccn(Cc2ccccc2)c1.F[B-](F)(F)F | 0.63 ± 0.04 | 0.63 ± 0.04 | 0.63 ± 0.04
C#CCCCC [1-hexyne] + CCCCCCCCn1cc[n+](COCCC)c1C.O=S(=O)([N-]S(=O)(=O)C(F)(F)F)C(F)(F)F | 1.39 ± 0.09 | 1.36 ± 0.09 | 1.34 ± 0.09
C1CCCCC1 [cyclohexane] + CCCOC[n+]1ccn(Cc2ccccc2)c1.N#C[N-]C#N | 13.1 ± 0.9 | 12.3 ± 0.84 | 11.5 ± 0.79
ClC(Cl)Cl [trichloromethane] + CCCOC[n+]1ccn(C)c1.O=S(=O)([N-]S(=O)(=O)C(F)(F)F)C(F)(F)F | 1.03 ± 0.06 | 1.06 ± 0.07 | 1.06 ± 0.07
Cc1ccc(C)cc1 [1,4-dimethylbenzene] + CCCOC[n+]1ccn(Cc2ccccc2)c1.O=S(=O)([N-]S(=O)(=O)C(F)(F)F)C(F)(F)F | 1.56 ± 0.1 | 1.37 ± 0.09 | 1.34 ± 0.09
c1ccncc1 [pyridine] + CCCOC[n+]1ccn(Cc2ccccc2)c1.N#C[N-]C#N | 0.67 ± 0.05 | 0.69 ± 0.05 | 0.71 ± 0.05

Compound | activity coefficient (323.15 K) | activity coefficient (333.15 K) | activity coefficient (343.15 K)
ClC(Cl)Cl [trichloromethane] + CCCCCCCCn1cc[n+](COCCCOC[n+]2ccn(CCCCCCCC)c2C)c1C.O=S(=O)([N-]S(=O)(=O)C(F)(F)F)C(F)(F)F.O=S(=O)([N-]S(=O)(=O)C(F)(F)F)C(F)(F)F | 0.39 ± 0.03 | 0.38 ± 0.03 | 0.39 ± 0.03
CCC[N+](=O)[O-] [1-nitropropane] + N#C[N-]C#N.N#C[N-]C#N.c1ccc(Cn2cc[n+](COCCCOC[n+]3ccn(Cc4ccccc4)c3)c2)cc1 | 1.76 ± 0.12 | 1.73 ± 0.12 | 1.75 ± 0.12
CCO [ethanol] + Cn1cc[n+](COCCCOC[n+]2ccn(C)c2)c1.N#C[N-]C#N.N#C[N-]C#N | 0.78 ± 0.05 | 0.76 ± 0.05 | 0.72 ± 0.05
CC(C)O [propan-2-ol] + N#C[N-]C#N.N#C[N-]C#N.c1ccc(Cn2cc[n+](COCCCOC[n+]3ccn(Cc4ccccc4)c3)c2)cc1 | 1.57 ± 0.1 | 1.45 ± 0.1 | 1.39 ± 0.09
CCCCCCCC [octane] + CCCCCCCCn1cc[n+](COCCC)c1C.N#C[N-]C#N | 11 ± 0.75 | 10.1 ± 0.69 | 9.94 ± 0.68
CCC[N+](=O)[O-] [1-nitropropane] + CCCOC[n+]1ccn(C)c1.F[B-](F)(F)F | 1.78 ± 0.12 | 1.78 ± 0.12 | 1.78 ± 0.12
CCCCO [butan-1-ol] + CCCOC[n+]1ccn(C)c1.O=S(=O)([N-]S(=O)(=O)C(F)(F)F)C(F)(F)F | 2.37 ± 0.16 | 2.09 ± 0.14 | 1.89 ± 0.13
CC1CCCC1 [methylcyclopentane] + CCCOC[n+]1ccc(N(C)C)cc1.O=S(=O)([N-]S(=O)(=O)C(F)(F)F)C(F)(F)F | 7.35 ± 0.5 | 7.22 ± 0.49 | 6.1 ± 0.42
C1COCCO1 [1,4-dioxane] + CCCOC[n+]1ccn(C)c1.F[B-](F)(F)F | 1.39 ± 0.09 | 1.42 ± 0.09 | 1.46 ± 0.1
CCCC(C)=O [pentan-2-one] + CCCOC[n+]1ccn(C)c1.F[B-](F)(F)F | 3.32 ± 0.23 | 3.33 ± 0.23 | 3.31 ± 0.23
ClC(Cl)(Cl)Cl [tetrachloromethane] + CCCCCCCCn1cc[n+](COCCCOC[n+]2ccn(CCCCCCCC)c2C)c1C.O=S(=O)([N-]S(=O)(=O)C(F)(F)F)C(F)(F)F.O=S(=O)([N-]S(=O)(=O)C(F)(F)F)C(F)(F)F | 0.99 ± 0.06 | 0.92 ± 0.06 | 1.02 ± 0.06
CCCCCCCC [octane] + CCCCCCCCn1cc[n+](COCCC)c1C.O=S(=O)([N-]S(=O)(=O)C(F)(F)F)C(F)(F)F | 5.76 ± 0.39 | 5.48 ± 0.37 | 5.17 ± 0.35
CC(C)CO [2-methyl-1-propanol] + CCCOC[n+]1ccc(N(C)C)cc1.O=S(=O)([N-]S(=O)(=O)C(F)(F)F)C(F)(F)F | 2.03 ± 0.14 | 1.92 ± 0.13 | 1.73 ± 0.12
CCCC(C)=O [pentan-2-one] + Cn1cc[n+](COCCCOC[n+]2ccn(C)c2)c1.O=S(=O)([N-]S(=O)(=O)C(F)(F)F)C(F)(F)F.O=S(=O)([N-]S(=O)(=O)C(F)(F)F)C(F)(F)F | 0.62 ± 0.04 | 0.65 ± 0.04 | 0.63 ± 0.04
CCCCCCCCCC [decane] + Cn1cc[n+](COCCCOC[n+]2ccn(C)c2)c1.O=S(=O)([N-]S(=O)(=O)C(F)(F)F)C(F)(F)F.O=S(=O)([N-]S(=O)(=O)C(F)(F)F)C(F)(F)F | 141 ± 9.7 | 132 ± 9 | 109 ± 7.5
CC1CCCCC1 [methylcyclohexane] + CCCOC[n+]1ccc(N(C)C)cc1.O=S(=O)([N-]S(=O)(=O)C(F)(F)F)C(F)(F)F | 9.3 ± 0.63 | 8.99 ± 0.61 | 7.79 ± 0.53
c1ccncc1 [pyridine] + N#C[N-]C#N.N#C[N-]C#N.c1ccc(Cn2cc[n+](COCCCOC[n+]3ccn(Cc4ccccc4)c3)c2)cc1 | 1.1 ± 0.07 | 1.1 ± 0.07 | 1.12 ± 0.07
CCCCCCCCCCC [undecane] + CCCOC[n+]1ccn(Cc2ccccc2)c1.F[B-](F)(F)F | 352 ± 24 | 301 ± 21 | 286 ± 20
CC#N [acetonitrile] + CCCOC[n+]1ccn(C)c1.O=S(=O)([N-]S(=O)(=O)C(F)(F)F)C(F)(F)F | 0.46 ± 0.04 | 0.46 ± 0.04 | 0.46 ± 0.04
CCCCO [butan-1-ol] + Cn1cc[n+](COCCCOC[n+]2ccn(C)c2)c1.N#C[N-]C#N.N#C[N-]C#N | 2.21 ± 0.15 | 1.9 ± 0.13 | 1.79 ± 0.12
c1ccccc1 [benzene] + CCCOC[n+]1ccn(C)c1.N#C[N-]C#N | 2.25 ± 0.15 | 2.27 ± 0.15 | 2.29 ± 0.16
